In patent US20060252045A1, “Methods and materials for identifying agents which modulate bone remodeling and agents identified thereby” (priority 2003, published 2006):

Key:
[1] = test system: Wnt/β-catenin target gene expression in MC3T3 cells; test: Flexercell mechanical load gene expression in MC3T3 cells (real-time PCR); conditions: for load induced Frizzled 2, eNOS, Fos and Jun gene expression: MC3T3, 1-60 μM added 1 hr prior to load; for load induced Connexin 43, Cyclin D1, Wnt 10b, SFRP1 and COX-2 gene expression: MC3T3, 1-60 μM added 1 hr prior to load (3,400 με, 5 hrs)
Procedure: For these experiments, the mouse MC3T3 osteoblastic cells were cultured in alpha minimum essential media (αMEM) (Invitrogen) supplemented with 10% heat inactivated FBS, 1% glutamax (Invitrogen) and 1% penicillin/streptomycin (Invitrogen). […] For those samples being pretreated in serum free media the cells were washed twice each with 2 mL of basal αMEM media prior to adding the BSA containing media. […] The cells were then subjected to mechanical distortion equivalent to 3,400 με (2 Hz, 7200 cycles/hr), for 5 hrs using a FX-3000 Flexercell® strain unit (Flexcell International Corp). RNA was then harvested (using the Qiagen Rneasy mini kit) immediately or 24 hr post loading from both the mechanical strained samples as well as the non-strained controls. All data shown in the examples that utilize the FlexerCell were derived from the RNA immediately harvested following loading.
Real-time PCR was then performed for the indicated genes using mouse gene specific primers and probes as discussed above.
RNA was isolated immediately after application of load and processed for TaqMan® analysis. The transcripts analyzed were COX-2, eNOS, Connexin 43, SFRP1, Wnt10B, cyclin D1, Frizzled 2, WISP2, Fos and Jun (FIG. 15).
Here, Wnt 3A conditioned media was obtained from mouse L-cells transfected with murine Wnt 3A. The MC3T3 cells were seeded and cultured for 3 days in growth media until confluence, as described above. The media for the MC3T3 cells was then changed to BSA containing media, and the cells were incubated for 24 hours. The BSA-containing media was then removed and replaced with fresh BSA media at a final volume of 1 mL containing various amounts of L-cell Wnt 3A conditioned media or control conditioned media from untransfected L-cells. The amount of Wnt 3A conditioned media varied from 0.5, 2.0, 5.0, 10.0, 20.0 and 100 μL in a final volume of 1 ml serum free BSA media. The MC3T3 cells were then subjected to 3,400 με at 2 Hz, 7200 cycles/hr for 5 hours as described in the prior examples.

mouse calvariae = test: Mouse calvarial model: calvarial thickness (histomorphometry); type: in vivo; conditions: 20 μg/kg/day
Procedure: Following sacrifice by CO2 narcosis, calvariae were removed intact, soft tissues were gently dissected, and the bones were fixed in 70% ethanol for 24 h for further processing and analysis. Calvariae were then bisected perpendicular to the sagittal suture through the central portion of the parietal bones parallel to the lambdoidal and coronal sutures. The anterior portion of the calvaria was used for paraffin sections, and the posterior portion of the calvaria was used for frozen sections. Four to five 5 μm-thick representative, non-consecutive step sections were cut. The paraffin sections are routinely stained with hematoxylin and eosin (H&E) for the measurement of calvarial thickness. The frozen sections were used for alkaline phosphatase detection. To facilitate histomorphometric measurements, a standard length of 2 mm of each section from the edge of the sagittal suture to the muscle insertion at the lateral border of each bone was used. All measurements were made using the R&M Biometrics Inc. Bioquant Image Analysis System.

[2] = test system: alkaline phosphatase activity in calvarial osteoblasts; test: Mouse calvarial model: alkaline phosphatase histochemical staining; type: in vivo; conditions: local administration, 7 days, vs vehicle
Procedure: Following sacrifice by CO2 narcosis, calvariae were removed intact, soft tissues were gently dissected, and the bones were fixed in 70% ethanol for 24 h for further processing and analysis. Calvariae were then bisected perpendicular to the sagittal suture through the central portion of the parietal bones parallel to the lambdoidal and coronal sutures. The anterior portion of the calvaria was used for paraffin sections, and the posterior portion of the calvaria was used for frozen sections. Four to five 5 μm-thick representative, non-consecutive step sections were cut. […] The frozen sections were used for alkaline phosphatase detection. To facilitate histomorphometric measurements, a standard length of 2 mm of each section from the edge of the sagittal suture to the muscle insertion at the lateral border of each bone was used. All measurements were made using the R&M Biometrics Inc. Bioquant Image Analysis System.
The activity of Alkaline Phosphatase (ALPase) was assessed with a histochemical stain using a Vector Red Alkaline Phosphatase Substrate Kit (Vector Laboratories, Inc. Burlingame, Calif.) in 6 μm frozen sections of the mouse parietal bone after fixing in 70% Ethanol.

β-catenin = test: Mouse calvarial model: β-catenin immunohistochemistry; type: in vivo; conditions: local injection
Procedure: Following sacrifice by CO2 narcosis, calvariae were removed intact, soft tissues were gently dissected, and the bones were fixed in 70% ethanol for 24 h for further processing and analysis. Calvariae were then bisected perpendicular to the sagittal suture through the central portion of the parietal bones parallel to the lambdoidal and coronal sutures. The anterior portion of the calvaria was used for paraffin sections, and the posterior portion of the calvaria was used for frozen sections. Four to five 5 μm-thick representative, non-consecutive step sections were cut.
After fixation, the anterior portion of the calvaria was decalcified in Surgipath Decalcifier II (Richmond, Ill.) for 7-8 h and then dehydrated in graded alcohol. Four to five 5 μm-thick representative, non-consecutive coronal step paraffin sections were cut. […] The binding of the antibody to the epitope was visualized (1 μg/1 mL) using an avidin-linked AP system (Vector Laboratories, Burlingame, Calif.). Controls comprised samples with the avidin-AP in the absence of primary antibody.

[3] = test system: Dkk1 suppressed Wnt1/Wnt 3A TCF-signal in U2OS cells; test: Release of Dkk1 mediated inhibition of TCF-signal in U2OS cells; type: cell-based, human; conditions: Dkk1 0.1 μg/well co-transfected with Wnt1 or Wnt 3A
Procedure: The final readout is activation of Dkk1 mediated suppressed TCF-signal. […] The experiment represented in FIG. 2 involved U2OS (ATCC) bone cells and is based on the endogenous expression of LRP5/6 receptors. […] 10 μL of the 15× stock was added per well along with appropriately diluted vehicle (i.e., DMSO) control.

Q: For `CS(=O)(=O)Nc1ccc([N+](=O)[O-])cc1OC1CCCCC1` [NS-398, N-(2-cyclohexyloxy-4-nitrophenyl)methanesulfonamide], which “load induced Frizzled 2, eNOS, Fos and Jun gene expression” value [1] is on record?
A: no effect

Q: What about the “load induced Connexin 43, Cyclin D1, Wnt 10b, SFRP1 and COX-2 gene expression” value [1] of the same molecule?
A: block the induction

Q: And the “load induced Connexin 43, Cyclin D1, Wnt 10b, SFRP1 and COX-2 gene expression” value ([1]; listed as COX-2 inhibitor)?
A: does not induce transcription

Q: And the “load induced Frizzled 2, eNOS, Fos and Jun gene expression” value ([1]; listed as COX-2 inhibitor)?
A: independent of COX-2 activity

Q: Which “effect on calvarial thickness (positive control)” value (mouse calvariae) does the source give for “Human PTH (1-34): Human parathyroid hormone (1-34), positive control in the calvarial model (SVSEIQLMHNLGKHLNSMERVEWLRKKLQDVHNF; Parathyroid hormone; UniProt P01270 32-65, looked up, fragment)” here?
A: significant increase in calvarial thickness

Q: What about the “alkaline phosphatase (ALPase) activity in osteoblasts” value [2] of the same molecule?
A: markedly enhanced

Q: What about the “β-catenin expression in osteoblastic cells lining the periosteum” value (β-catenin) of the same molecule?
A: no effect

Q: For Wnt 3A, which “cyclin D1, connexin 43, SFRP1, Wnt 10B, WISP2, COX-2, FOS and JUN gene expression, alone” value ([1]; MC3T3, Wnt 3A conditioned media, no load) is on record?
A: no effect

B1: Dkk1: Wnt antagonist co-transfected into U2OS cells; inhibits LRP5 activity (protein, UniProt O94907 32-266, looked up)
Dickkopf-related protein 1: TLNSVLNSNAIKNLPPPLGGAAGHPGSAVSAAPGILYPGGNKYQTIDNYQPYPCAEDEECGTDEYCASPTRGGDAGVQICLACRKRRKRCMRHAMCCPGNYCKNGICVSSDQNHFRGEIEETITESFGNDHSTLDGYSRRTTLSSKMYHTKGQEGSVCLRSSDCASGLCCARHFWSKICKPVLKEGQVCTKHRRKGSHGLEIFQRCYCGEGLSCRIQKDHHQASNSSRLHTCQRH
Q: For B1, which “effect on Wnt1/Wnt 3A TCF-activity” value [3] is on record?
A: suppressed almost completely
